Reference: US12516056B2, “Compounds for inhibition of janus kinase 1” (MANKIND PHARMA LTD., priority 2019, dated 2026)
Where two headings read alike, the source gives them in different places.

Key:
Recombinant TYK2 = target: T1, Recombinant TYK2 (Homo sapiens, UniProt P29597); assay: JAK biochemical assay (LANCE Ultra TR-FRET), TYK2
T1 construct: purchased Carna Biosciences
Outline: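 % inhibition relative to vehicle was derived from TR-FRET signal proportional to ULight-substrate phosphorylation. Reactions used recombinant kinase in HEPES pH 7.5 buffer containing EGTA, MgCl2, DTT and Tween-20.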

[1] = tested on: IFN-γ production in NK 92 cells by IL-12; assay: IFN-γ production in NK 92 cells by IL-12 (ELISA); settings: NK92, IFN-γ detection from cell supernatants, read-out: Cell based IC50 (μM) NK-92/IL-12*
Description: NK 92 cells were cultured in medium without IL-2 for overnight. Next day, 5000 cells per well NK 92 cells were seeded in a 96 well plate. Compounds were added to cells and incubated for 1 hour. Later IL-12, 10 U/ml was added to cells and incubated for overnight. Supernatant was collected from the wells and IFN-7 secretion was measured by using human IFN-7 ELISA kit. Absorbance was measured at 450 nm in BMG FLUOstar. Background signal obtained from cells which were not activated with cytokines, was subtracted from vehicle controls and compound treated wells.

[2] = tested on: Imiquimod induced dermatitis in mice; assay: Mouse model of Imiquimod induced psoriasis; assay type: in vivo, Female BALB/c mice; settings: 3% topical, QD; for back skin thickness / cumulative psoriasis score compared to vehicle / ear thickness: IMQ induced psoriasis, mice
Description: Imiquimod (IMQ) induced dermatitis closely resembles human psoriasis lesions not only with regard to phenotypic and histological characteristics but also in the development of the lesions. IMQ is a ligand for toll-like receptor 7 (TLR7) and TLR8, and is a potent immune activator. […] Migration of activated dermal dendritic cells to lymph nodes in skin triggers a sequence of events leading to late phase of psoriasis. Compounds described herein are tested for JAK inhibition driven efficacy in Imiquimod induced dermatitis in mice.
Female BALB/c mice were topically dosed with 3% cream formulation containing test compounds. After four hours of test compound administration, 5% Imiquimod was applied on back skin and right ear for five days. On day 6, post dosing with test compounds, the severity of psoriasis was monitored and graded following Psoriasis Area and Severity Index (PASI). Efficacies of the compounds were evaluated based on PASI score. Redness, thickness and scaling of back skin and ear were assessed among the groups for scoring.

[3] = tested on: oxazolone induced colitis; assay: Murine model of oxazolone induced colitis; assay type: in vivo, Male BALB/c mice; settings: 30 mpk, PO, BID
[4] = read-out: Biochemical IC50 (nM) TYK2
[5] = recombinant TYK2, TR-FRET, read-out: Biochemical Assay (μM) TYK2

T1 sequence (P29597 whole entry): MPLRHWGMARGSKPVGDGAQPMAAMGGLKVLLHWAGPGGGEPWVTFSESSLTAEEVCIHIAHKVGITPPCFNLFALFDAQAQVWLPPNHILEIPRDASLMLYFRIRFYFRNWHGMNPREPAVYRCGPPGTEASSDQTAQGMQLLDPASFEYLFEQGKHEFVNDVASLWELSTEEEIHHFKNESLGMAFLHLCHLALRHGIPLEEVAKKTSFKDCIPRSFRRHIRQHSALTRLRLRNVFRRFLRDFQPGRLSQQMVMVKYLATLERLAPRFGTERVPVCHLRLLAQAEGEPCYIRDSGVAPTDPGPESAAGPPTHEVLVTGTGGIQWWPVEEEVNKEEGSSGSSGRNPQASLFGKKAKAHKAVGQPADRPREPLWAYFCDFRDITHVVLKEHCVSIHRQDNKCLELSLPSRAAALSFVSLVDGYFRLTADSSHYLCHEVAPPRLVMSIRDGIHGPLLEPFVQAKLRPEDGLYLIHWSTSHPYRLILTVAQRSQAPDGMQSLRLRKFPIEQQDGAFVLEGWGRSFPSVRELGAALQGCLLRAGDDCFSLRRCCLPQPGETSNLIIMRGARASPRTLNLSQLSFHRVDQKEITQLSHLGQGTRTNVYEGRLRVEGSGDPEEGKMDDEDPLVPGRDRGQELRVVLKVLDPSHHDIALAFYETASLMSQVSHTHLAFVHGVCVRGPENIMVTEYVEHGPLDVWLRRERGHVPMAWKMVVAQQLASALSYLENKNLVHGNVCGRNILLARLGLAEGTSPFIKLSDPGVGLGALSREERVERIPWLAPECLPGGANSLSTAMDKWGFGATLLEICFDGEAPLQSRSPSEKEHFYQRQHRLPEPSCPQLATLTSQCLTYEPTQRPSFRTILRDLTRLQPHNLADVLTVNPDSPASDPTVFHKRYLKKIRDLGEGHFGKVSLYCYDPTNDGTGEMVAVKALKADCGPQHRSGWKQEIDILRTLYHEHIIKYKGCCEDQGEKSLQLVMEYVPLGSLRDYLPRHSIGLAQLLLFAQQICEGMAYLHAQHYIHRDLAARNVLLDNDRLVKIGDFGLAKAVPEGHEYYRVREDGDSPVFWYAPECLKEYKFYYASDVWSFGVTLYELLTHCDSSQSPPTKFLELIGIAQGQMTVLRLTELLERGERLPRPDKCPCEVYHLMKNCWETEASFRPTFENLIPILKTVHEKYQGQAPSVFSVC

| SMILES | IC50 (Recombinant TYK2; [4]) [nM] | IC50 (Recombinant TYK2; [5]) [nM] | IC50 [1] [µM] | efficacy compared to 1133 and reference compound filgotinib (psoriasis model) [2] | back skin thickness [2] | cumulative psoriasis score compared to vehicle [2] | ear thickness [2] | efficacy in comparison to Filgotinib (colitis model) [3] |
| --- | --- | --- | --- | --- | --- | --- | --- | --- |
| CC(C)NC(=O)CC[C@@H](c1ccc(-n2cc(-c3ccnc4[nH]cnc34)cn2)nc1)C(F)(F)F [Example 1215, (S)-4-(6-(4-(3H-imidazo[4,5-b]pyridin-7-yl)-1H-pyrazol-1-yl)pyridin-3-yl)-5,5,5-trifluoro-N-isopropylpentanamide] | > 100 | > 1000 | > 10 | better efficacy | significant decrease | statistically significant decrease | significant decrease | better efficacy |
| CN1CCC(C(O)(c2ccc(-n3cc(-c4ccnc5[nH]cnc45)cn3)nc2)C(F)(F)F)CC1 (centres unmarked) [Example 1133, 1-(6-(4-(3H-imidazo[4,5-b]pyridin-7-yl)-1H-pyrazol-1-yl)pyridin-3-yl)-2,2,2-trifluoro-1-(1-methylpiperidin-4-yl)ethanol] | 850 | > 1000 | > 10 |  | significant decrease | statistically significant decrease | significant decrease |  |
